According to US20080009418A1, “Selective Inhibitors” (Alchemia LTD., priority 2004, published 2008):

Experiments:
[1] = target: T1, Human melanin-concentrating hormone (MCH1) (Homo sapiens, UniProt Q99705); test: Radioligand binding, human melanin-concentrating hormone MCH1 membranes, FlashPlate, [125I]-S36057; conditions: compound at 10 μM; human MCH1 membranes
T1 construct: purchased Perkin Elmer Biosignal
Procedure, shortened: (§1)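 Cloned human receptor membranes were coated onto FlashPlate wells and incubated with radioligand and compound (added from a 0.5 mM DMSO daughter plate) for 1 hour at room temperature in the dark. Scintillation counting gave percent inhibition, with DMSO defining total and reference ligand defining non-specific binding.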

Human melanocortin (MC5) = target: T2, Human melanocortin (MC5) (Homo sapiens, UniProt P33032); test: Radioligand binding, human melanocortin MC5 membranes, FlashPlate, [125I]-NDP-αMSH; conditions: compound at 10 μM; human melanocortin MC5 membranes
T2 construct: purchased Perkin Elmer Biosignal
Procedure, shortened: as §1

Human Melanocortin (MC4) = target: T3, Human Melanocortin (MC4) (Homo sapiens, UniProt P32245); test: Radioligand binding, human melanocortin MC4 membranes, FlashPlate, [125I]-NDP-αMSH; conditions: compound at 10 μM; human melanocortin MC4 membranes
T3 construct: purchased Perkin Elmer Biosignal
Procedure, shortened: as §1

Human Melanocortin (MC3) = target: T4, Human Melanocortin (MC3) (Homo sapiens, UniProt P41968); test: Radioligand binding, human melanocortin MC3 membranes, FlashPlate, [125I]-NDP-αMSH; conditions: compound at 10 μM; human melanocortin MC3 membranes
T4 construct: purchased Perkin Elmer Biosignal
Procedure, shortened: as §1

Human neurokinin (NK1) = target: T5, Human neurokinin (NK1) (Homo sapiens, UniProt P25103); test: Radioligand binding, human neurokinin NK1 membranes, filtration, [125I]-Substance P; conditions: compound at 10 μM; human neurokinin NK1 membranes
T5 construct: purchased Perkin Elmer Biosignal
Procedure, shortened: (§2)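 Membranes from cloned human receptors were incubated with compound and radioligand for 1 hour at room temperature. Bound ligand was collected on 0.3% PEI-soaked filters, washed with cold 50 mM Tris-HCl pH 7.4, and counted by scintillation. Percent inhibition was computed against DMSO totals and reference-ligand nonspecific wells.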

[2] = target: T6, Human neuropeptide Y (NPY-Y1) (Homo sapiens, UniProt P25929); test: Radioligand binding, human neuropeptide Y NPY-Y1 membranes, FlashPlate, [125I]-PYY; conditions: compound at 10 μM; human NPY-Y1 membranes
T6 construct: purchased Perkin Elmer Biosignal
T6 sequence (P25929 1-384): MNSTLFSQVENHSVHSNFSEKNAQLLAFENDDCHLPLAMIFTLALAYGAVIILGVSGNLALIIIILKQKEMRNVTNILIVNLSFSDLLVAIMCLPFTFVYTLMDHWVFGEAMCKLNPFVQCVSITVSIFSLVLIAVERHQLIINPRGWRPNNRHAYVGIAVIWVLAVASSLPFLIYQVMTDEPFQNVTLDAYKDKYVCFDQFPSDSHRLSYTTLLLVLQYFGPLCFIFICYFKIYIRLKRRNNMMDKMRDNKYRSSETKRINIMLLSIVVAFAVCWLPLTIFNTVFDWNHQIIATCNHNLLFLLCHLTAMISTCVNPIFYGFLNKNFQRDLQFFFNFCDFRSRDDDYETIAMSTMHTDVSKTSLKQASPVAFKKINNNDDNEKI
Procedure, shortened: as §1

Human δ-opioid (DOP) = target: T7, Human δ-opioid (DOP) (Homo sapiens, UniProt P41143); test: Radioligand binding, human δ-opioid (DOP) membranes, FlashPlate, [3H]-Bremazocine; conditions: compound at 10 μM; human δ-opioid (DOP) membranes
T7 construct: purchased Perkin Elmer Biosignal
Procedure, shortened: as §1

Mouse urotensin (mUR2) = target: T8, Mouse urotensin (mUR2) (Mus musculus, UniProt Q8VIH9); test: Radioligand binding, mouse urotensin mUR2 membranes, FlashPlate, [125I]-Urotensin II; conditions: compound at 10 μM; mouse urotensin mUR2 membranes
T8 construct: purchased Perkin Elmer Biosignal
T8 sequence (Q8VIH9 1-385): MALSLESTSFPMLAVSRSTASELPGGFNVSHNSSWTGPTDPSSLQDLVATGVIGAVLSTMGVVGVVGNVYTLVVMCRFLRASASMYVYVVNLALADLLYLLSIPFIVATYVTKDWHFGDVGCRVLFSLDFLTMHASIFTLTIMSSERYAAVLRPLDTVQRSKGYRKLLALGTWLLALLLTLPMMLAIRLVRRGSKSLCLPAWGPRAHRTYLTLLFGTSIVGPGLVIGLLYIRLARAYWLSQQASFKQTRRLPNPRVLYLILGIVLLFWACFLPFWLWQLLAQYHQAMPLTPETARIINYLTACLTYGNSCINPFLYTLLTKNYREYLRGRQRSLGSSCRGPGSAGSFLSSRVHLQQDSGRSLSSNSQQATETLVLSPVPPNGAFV
Procedure, shortened: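 Cloned mouse urotensin (mUR2) receptor membranes from Perkin Elmer Biosignal were immobilized in FlashPlate microplates using a proprietary coating. Each well got 19.5 μl buffer, then 0.5 μl of DMSO, reference ligand, or compound. Adding 5 μl of [125I]-Urotensin II, diluted to 5× final concentration in binding buffer, started binding. Plates were sealed with TopSeal-A and incubated 1 hour at room temperature in the dark. Wells were counted for 30 seconds each on a TopCount after a 60-second delay, and percentage inhibition was calculated.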

Human μ-opioid (MOP) = target: T9, Human μ-opioid (MOP) (Homo sapiens, UniProt P35372); test: Radioligand binding, human μ-opioid (MOP) membranes, FlashPlate, [3H]-Naloxone; conditions: compound at 10 μM; human μ-opioid (MOP) membranes
T9 construct: purchased Perkin Elmer Biosignal
Procedure, shortened: as §1

Human opioid (ORL1) = target: T10, Human opioid (ORL1) (Homo sapiens, UniProt P41146); test: Radioligand binding, human opioid ORL1 membranes, FlashPlate, [125I]-Nociceptin; conditions: compound at 10 μM; human ORL1 membranes
T10 construct: purchased Perkin Elmer Biosignal
Procedure, shortened: as §1

Human κ-Opioid (KOP) = target: T11, Human κ-Opioid (KOP) (Homo sapiens, UniProt P41145); test: Radioligand binding, human κ-opioid (KOP) membranes, filtration, [3H]-Diprenorphine; conditions: compound at 10 μM; human κ-opioid (KOP) membranes
T11 construct: purchased Perkin Elmer Biosignal
Procedure, shortened: as §2

T5 sequence (P25103 whole entry): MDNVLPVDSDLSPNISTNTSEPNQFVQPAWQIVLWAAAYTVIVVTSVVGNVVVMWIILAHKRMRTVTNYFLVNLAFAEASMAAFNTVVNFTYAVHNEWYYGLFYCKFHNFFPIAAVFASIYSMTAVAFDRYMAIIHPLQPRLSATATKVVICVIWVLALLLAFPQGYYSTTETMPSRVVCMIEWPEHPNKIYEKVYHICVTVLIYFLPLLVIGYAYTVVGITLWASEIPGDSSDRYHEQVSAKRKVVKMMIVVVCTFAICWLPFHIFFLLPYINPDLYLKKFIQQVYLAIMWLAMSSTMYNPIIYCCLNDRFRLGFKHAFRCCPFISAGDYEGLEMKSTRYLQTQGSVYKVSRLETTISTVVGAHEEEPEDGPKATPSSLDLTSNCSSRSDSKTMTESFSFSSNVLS
T4 sequence (P41968 whole entry): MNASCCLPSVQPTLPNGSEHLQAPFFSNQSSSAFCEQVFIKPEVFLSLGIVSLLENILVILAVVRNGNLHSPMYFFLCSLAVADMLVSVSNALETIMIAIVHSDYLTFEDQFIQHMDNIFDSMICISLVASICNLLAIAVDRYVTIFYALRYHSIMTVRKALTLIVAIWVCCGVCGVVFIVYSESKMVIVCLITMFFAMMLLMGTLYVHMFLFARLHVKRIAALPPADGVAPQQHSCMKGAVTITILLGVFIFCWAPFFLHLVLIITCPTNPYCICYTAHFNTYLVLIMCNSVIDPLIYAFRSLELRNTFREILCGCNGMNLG
T11 sequence (P41145 whole entry): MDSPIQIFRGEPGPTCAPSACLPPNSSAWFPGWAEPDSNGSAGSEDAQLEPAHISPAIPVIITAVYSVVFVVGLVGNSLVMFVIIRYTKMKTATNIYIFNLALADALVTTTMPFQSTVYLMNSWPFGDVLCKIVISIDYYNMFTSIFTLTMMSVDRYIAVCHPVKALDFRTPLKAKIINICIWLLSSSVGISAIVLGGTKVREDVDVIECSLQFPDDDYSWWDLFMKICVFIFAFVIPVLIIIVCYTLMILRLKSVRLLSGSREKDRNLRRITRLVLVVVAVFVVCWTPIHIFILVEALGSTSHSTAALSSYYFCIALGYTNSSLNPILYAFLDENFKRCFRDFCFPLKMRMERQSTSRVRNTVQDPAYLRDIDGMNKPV
T1 sequence (Q99705 whole entry): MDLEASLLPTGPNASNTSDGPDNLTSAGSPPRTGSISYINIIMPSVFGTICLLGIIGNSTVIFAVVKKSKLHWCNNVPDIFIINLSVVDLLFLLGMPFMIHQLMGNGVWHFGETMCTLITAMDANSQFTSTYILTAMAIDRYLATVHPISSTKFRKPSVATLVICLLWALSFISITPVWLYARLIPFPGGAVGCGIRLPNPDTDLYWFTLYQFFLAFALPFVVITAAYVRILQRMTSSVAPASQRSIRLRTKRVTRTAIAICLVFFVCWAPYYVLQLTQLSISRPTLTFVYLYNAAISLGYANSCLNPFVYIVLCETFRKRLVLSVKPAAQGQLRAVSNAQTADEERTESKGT
T9 sequence (P35372 whole entry): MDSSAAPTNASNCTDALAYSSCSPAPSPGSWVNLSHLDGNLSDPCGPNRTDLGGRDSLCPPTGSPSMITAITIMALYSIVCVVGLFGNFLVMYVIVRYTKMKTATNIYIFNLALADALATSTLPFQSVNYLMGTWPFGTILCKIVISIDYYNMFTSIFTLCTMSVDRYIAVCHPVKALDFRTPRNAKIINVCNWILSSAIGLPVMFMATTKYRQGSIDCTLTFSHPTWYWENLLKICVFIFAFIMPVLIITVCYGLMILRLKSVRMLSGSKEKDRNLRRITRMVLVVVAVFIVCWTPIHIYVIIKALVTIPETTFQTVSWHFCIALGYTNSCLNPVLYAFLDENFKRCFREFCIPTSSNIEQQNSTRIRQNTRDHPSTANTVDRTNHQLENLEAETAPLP
T7 sequence (P41143 whole entry): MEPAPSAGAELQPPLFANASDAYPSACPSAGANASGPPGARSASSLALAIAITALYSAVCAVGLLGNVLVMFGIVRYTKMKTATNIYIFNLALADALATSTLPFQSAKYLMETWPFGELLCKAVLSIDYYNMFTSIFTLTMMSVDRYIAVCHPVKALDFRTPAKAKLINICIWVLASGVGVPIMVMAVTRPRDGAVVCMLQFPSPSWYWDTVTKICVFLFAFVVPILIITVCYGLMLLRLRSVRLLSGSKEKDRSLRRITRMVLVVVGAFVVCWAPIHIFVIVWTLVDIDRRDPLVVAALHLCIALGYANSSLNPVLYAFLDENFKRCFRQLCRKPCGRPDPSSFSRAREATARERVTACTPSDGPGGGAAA
T3 sequence (P32245 whole entry): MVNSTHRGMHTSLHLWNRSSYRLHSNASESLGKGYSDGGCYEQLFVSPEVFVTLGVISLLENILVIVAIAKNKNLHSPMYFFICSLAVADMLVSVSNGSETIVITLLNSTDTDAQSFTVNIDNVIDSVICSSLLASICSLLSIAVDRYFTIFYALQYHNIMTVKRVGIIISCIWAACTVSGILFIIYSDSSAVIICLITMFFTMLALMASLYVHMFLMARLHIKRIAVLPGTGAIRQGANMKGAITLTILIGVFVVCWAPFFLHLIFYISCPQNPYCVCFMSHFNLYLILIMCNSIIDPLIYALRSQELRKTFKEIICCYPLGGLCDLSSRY
T10 sequence (P41146 whole entry): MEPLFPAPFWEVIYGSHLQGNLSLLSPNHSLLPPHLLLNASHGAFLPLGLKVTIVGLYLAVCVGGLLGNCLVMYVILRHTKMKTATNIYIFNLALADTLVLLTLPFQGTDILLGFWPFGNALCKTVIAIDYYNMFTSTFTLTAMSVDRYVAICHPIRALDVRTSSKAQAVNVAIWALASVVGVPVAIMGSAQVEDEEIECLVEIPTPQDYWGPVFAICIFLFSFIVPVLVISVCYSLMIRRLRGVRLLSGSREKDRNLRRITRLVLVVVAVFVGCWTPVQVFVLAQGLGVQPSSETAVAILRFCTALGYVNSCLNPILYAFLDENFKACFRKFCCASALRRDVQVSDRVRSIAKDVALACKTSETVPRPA
T2 sequence (P33032 whole entry): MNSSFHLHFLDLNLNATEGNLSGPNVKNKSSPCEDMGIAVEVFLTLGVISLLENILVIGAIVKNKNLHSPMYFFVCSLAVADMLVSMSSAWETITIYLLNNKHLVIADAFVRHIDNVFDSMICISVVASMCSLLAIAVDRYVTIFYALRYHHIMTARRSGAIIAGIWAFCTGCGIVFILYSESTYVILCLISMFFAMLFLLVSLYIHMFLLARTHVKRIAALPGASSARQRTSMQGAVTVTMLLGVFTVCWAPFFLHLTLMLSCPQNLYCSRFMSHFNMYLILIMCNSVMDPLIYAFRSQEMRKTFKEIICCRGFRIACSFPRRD

| Compound | A6 radioligand binding inhibition [1] | A5 radioligand binding inhibition (Human melanocortin (MC5)) | A4 radioligand binding inhibition (Human Melanocortin (MC4)) | A3 radioligand binding inhibition (Human Melanocortin (MC3)) | A8 radioligand binding inhibition (Human neurokinin (NK1)) | A9 radioligand binding inhibition [2] | A1 radioligand binding inhibition (Human δ-opioid (DOP)) | A11 radioligand binding inhibition (Mouse urotensin (mUR2)) | A7 radioligand binding inhibition (Human μ-opioid (MOP)) | A10 radioligand binding inhibition (Human opioid (ORL1)) | A2 radioligand binding inhibition (Human κ-Opioid (KOP)) |
| --- | --- | --- | --- | --- | --- | --- | --- | --- | --- | --- | --- |
| CO[C@H]1[C@H](O)[C@@H](COCc2ccc3ccccc3c2)OC(OCc2ccc(-c3ccccc3)cc2)[C@@H]1NC(=O)CCCNC(=N)N (stereo partly drawn) [compound 57] | − (“−” indicates less than 50% inhibition at 10 μM) | + (“+” indicates greater than 50% inhibition at 10 μM) | + (“+” indicates greater than 50% inhibition at 10 μM) | + (“+” indicates greater than 50% inhibition at 10 μM) | + (“+” indicates greater than 50% inhibition at 10 μM) | − (“−” indicates less than 50% inhibition at 10 μM) | − (“−” indicates less than 50% inhibition at 10 μM) | − (“−” indicates less than 50% inhibition at 10 μM) | + (“+” indicates greater than 50% inhibition at 10 μM) | + (“+” indicates greater than 50% inhibition at 10 μM) | + (“+” indicates greater than 50% inhibition at 10 μM) |
| CO[C@H]1[C@H](O)[C@@H](COCc2ccccc2)OC(OCc2ccc(-c3ccccc3)cc2)[C@@H]1NC(=O)CNC(=N)N (stereo partly drawn) [compound 58] | − (“−” indicates less than 50% inhibition at 10 μM) | + (“+” indicates greater than 50% inhibition at 10 μM) | + (“+” indicates greater than 50% inhibition at 10 μM) | − (“−” indicates less than 50% inhibition at 10 μM) | + (“+” indicates greater than 50% inhibition at 10 μM) | − (“−” indicates less than 50% inhibition at 10 μM) | − (“−” indicates less than 50% inhibition at 10 μM) | − (“−” indicates less than 50% inhibition at 10 μM) | + (“+” indicates greater than 50% inhibition at 10 μM) | − (“−” indicates less than 50% inhibition at 10 μM) | + (“+” indicates greater than 50% inhibition at 10 μM) |
| CO[C@H]1[C@H](O)[C@@H](COCc2ccccc2)OC(OCc2ccc(-c3ccccc3)cc2)[C@@H]1NC(=O)CCNC(=N)N (stereo partly drawn) [compound 59] | − (“−” indicates less than 50% inhibition at 10 μM) | + (“+” indicates greater than 50% inhibition at 10 μM) | − (“−” indicates less than 50% inhibition at 10 μM) | − (“−” indicates less than 50% inhibition at 10 μM) | + (“+” indicates greater than 50% inhibition at 10 μM) | − (“−” indicates less than 50% inhibition at 10 μM) | − (“−” indicates less than 50% inhibition at 10 μM) | − (“−” indicates less than 50% inhibition at 10 μM) | + (“+” indicates greater than 50% inhibition at 10 μM) | − (“−” indicates less than 50% inhibition at 10 μM) | + (“+” indicates greater than 50% inhibition at 10 μM) |
| CO[C@H]1[C@H](O)[C@@H](COCc2ccccc2)OC(OCc2ccc(-c3ccccc3)cc2)[C@@H]1NC(=O)CCCN (stereo partly drawn) [compound 60] | − (“−” indicates less than 50% inhibition at 10 μM) | + (“+” indicates greater than 50% inhibition at 10 μM) | − (“−” indicates less than 50% inhibition at 10 μM) | − (“−” indicates less than 50% inhibition at 10 μM) | − (“−” indicates less than 50% inhibition at 10 μM) | − (“−” indicates less than 50% inhibition at 10 μM) | − (“−” indicates less than 50% inhibition at 10 μM) | − (“−” indicates less than 50% inhibition at 10 μM) | − (“−” indicates less than 50% inhibition at 10 μM) | − (“−” indicates less than 50% inhibition at 10 μM) | − (“−” indicates less than 50% inhibition at 10 μM) |
| CO[C@H]1[C@H](O)[C@@H](COCc2ccccc2)OC(OCc2ccc(-c3ccccc3)cc2)[C@@H]1NC(=O)CCCNC(=N)N (stereo partly drawn) [compound 61] | − (“−” indicates less than 50% inhibition at 10 μM) | + (“+” indicates greater than 50% inhibition at 10 μM) | − (“−” indicates less than 50% inhibition at 10 μM) | − (“−” indicates less than 50% inhibition at 10 μM) | + (“+” indicates greater than 50% inhibition at 10 μM) | − (“−” indicates less than 50% inhibition at 10 μM) | − (“−” indicates less than 50% inhibition at 10 μM) | − (“−” indicates less than 50% inhibition at 10 μM) | + (“+” indicates greater than 50% inhibition at 10 μM) | − (“−” indicates less than 50% inhibition at 10 μM) | + (“+” indicates greater than 50% inhibition at 10 μM) |
| CO[C@H]1[C@H](O)[C@@H](COCc2ccc(Cl)cc2)OC(OCc2ccc(-c3ccccc3)cc2)[C@@H]1NC(=O)CNC(=N)N (stereo partly drawn) [compound 62] | + (“+” indicates greater than 50% inhibition at 10 μM) | + (“+” indicates greater than 50% inhibition at 10 μM) | + (“+” indicates greater than 50% inhibition at 10 μM) | + (“+” indicates greater than 50% inhibition at 10 μM) | + (“+” indicates greater than 50% inhibition at 10 μM) | − (“−” indicates less than 50% inhibition at 10 μM) | − (“−” indicates less than 50% inhibition at 10 μM) | − (“−” indicates less than 50% inhibition at 10 μM) | − (“−” indicates less than 50% inhibition at 10 μM) | + (“+” indicates greater than 50% inhibition at 10 μM) | − (“−” indicates less than 50% inhibition at 10 μM) |
